Experimental data as given in patent US8815882B2, “Pyrazole aminopyrimidine derivatives as LRRK2 modulators” (Genentech, Inc., priority 2010, dated 2014).

Target: T1, LRRK2 (Homo sapiens, UniProt Q5S007, G2019S)
T1 construct: purchased Invitrogen PV4882 (lot 567054A)
Assay: In Vitro LRRK2 Assay (LabChip 3000, fluorescently-labeled peptide substrate, ATP)
Format: biochemical
Details: Table 9; LRRK2 Ki (micromolar); read-out: LRRK2 Ki (KI)
Summary of the method: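 Read-out was LabChip capillary electrophoresis, resolving phospho- from non-phospho-peptide by fluorescence intensity. The kinase reaction combined enzyme, ATP, test compound and labeled peptide (4 μM working dilution) for 2 h in darkness before stop solution. Values were reported as Ki, from a tight-binding model with Et, S and Km, or as IC50 or percent inhibition.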

T1 sequence (Q5S007 whole entry G2019S): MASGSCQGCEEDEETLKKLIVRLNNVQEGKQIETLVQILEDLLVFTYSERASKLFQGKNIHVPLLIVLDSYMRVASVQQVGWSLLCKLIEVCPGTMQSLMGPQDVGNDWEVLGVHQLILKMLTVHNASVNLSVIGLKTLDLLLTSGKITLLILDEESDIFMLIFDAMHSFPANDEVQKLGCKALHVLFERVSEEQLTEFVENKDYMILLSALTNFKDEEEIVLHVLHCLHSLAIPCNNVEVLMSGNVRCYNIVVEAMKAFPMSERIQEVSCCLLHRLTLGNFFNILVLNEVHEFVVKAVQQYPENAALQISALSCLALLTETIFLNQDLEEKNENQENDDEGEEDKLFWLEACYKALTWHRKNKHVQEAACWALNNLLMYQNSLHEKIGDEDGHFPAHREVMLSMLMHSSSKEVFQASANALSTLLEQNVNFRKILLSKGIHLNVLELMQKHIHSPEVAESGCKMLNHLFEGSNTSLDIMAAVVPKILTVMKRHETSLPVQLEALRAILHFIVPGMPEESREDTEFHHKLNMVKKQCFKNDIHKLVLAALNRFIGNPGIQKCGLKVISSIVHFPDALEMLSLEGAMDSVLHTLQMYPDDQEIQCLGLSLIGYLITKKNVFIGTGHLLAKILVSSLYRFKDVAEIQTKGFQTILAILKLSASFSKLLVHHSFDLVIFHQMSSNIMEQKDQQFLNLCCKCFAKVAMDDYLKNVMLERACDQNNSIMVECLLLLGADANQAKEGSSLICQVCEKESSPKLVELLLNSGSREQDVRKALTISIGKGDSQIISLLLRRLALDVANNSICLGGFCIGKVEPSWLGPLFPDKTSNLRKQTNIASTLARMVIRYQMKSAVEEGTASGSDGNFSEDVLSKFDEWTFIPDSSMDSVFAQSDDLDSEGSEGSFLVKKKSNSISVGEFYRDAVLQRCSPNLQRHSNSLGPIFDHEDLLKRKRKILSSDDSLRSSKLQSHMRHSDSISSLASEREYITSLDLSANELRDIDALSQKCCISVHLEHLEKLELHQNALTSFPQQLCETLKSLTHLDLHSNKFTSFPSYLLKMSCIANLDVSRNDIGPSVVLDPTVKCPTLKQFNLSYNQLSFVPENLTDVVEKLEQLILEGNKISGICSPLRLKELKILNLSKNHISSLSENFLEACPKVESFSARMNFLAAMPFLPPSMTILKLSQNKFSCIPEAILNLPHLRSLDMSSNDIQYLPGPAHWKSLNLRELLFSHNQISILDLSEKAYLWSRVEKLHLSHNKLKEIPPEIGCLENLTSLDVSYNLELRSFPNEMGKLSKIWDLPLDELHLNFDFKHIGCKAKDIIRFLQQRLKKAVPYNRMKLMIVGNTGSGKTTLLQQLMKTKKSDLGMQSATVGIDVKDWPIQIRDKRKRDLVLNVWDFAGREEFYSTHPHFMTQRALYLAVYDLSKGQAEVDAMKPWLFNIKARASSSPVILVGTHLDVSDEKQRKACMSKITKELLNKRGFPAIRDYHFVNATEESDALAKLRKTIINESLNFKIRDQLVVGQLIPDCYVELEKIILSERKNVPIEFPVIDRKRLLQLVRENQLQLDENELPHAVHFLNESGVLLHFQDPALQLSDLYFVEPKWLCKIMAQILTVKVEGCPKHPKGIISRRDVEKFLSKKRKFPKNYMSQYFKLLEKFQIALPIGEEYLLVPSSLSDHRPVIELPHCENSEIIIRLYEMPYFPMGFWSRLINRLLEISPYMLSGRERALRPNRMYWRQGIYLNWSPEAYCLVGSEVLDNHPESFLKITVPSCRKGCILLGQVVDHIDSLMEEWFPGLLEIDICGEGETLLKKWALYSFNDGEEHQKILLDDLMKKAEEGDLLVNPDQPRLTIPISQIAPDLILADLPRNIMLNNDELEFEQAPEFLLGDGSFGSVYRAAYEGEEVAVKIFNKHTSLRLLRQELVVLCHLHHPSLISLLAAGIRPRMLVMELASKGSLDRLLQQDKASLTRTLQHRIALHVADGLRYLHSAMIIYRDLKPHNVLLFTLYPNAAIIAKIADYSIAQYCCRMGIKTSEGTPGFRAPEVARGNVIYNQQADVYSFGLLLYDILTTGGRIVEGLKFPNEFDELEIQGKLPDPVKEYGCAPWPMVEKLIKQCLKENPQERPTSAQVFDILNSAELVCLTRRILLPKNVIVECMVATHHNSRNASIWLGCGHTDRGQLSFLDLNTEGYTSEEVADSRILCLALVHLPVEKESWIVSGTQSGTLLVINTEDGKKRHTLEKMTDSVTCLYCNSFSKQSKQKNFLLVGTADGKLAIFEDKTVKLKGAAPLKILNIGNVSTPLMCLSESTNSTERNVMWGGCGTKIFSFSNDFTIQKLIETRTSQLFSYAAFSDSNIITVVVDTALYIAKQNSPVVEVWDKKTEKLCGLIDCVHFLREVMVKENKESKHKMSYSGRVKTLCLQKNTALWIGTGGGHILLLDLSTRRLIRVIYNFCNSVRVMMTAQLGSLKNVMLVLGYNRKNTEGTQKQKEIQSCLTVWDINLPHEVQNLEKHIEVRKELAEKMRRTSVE

Ki | Structure (SMILES)
211 nM | Cc1c(Nc2ncc(C#N)c(OCC(F)F)n2)cnn1C [Example 391, 4-(2,2-Difluoro-ethoxy)-2-(1,5-dimethyl-1H-pyrazol-4-ylamino)-pyrimidine-5-carbonitrile]
120 nM | CNc1nc(Nc2cn(-c3ccccc3)nc2C)ncc1C#N [Example 354, 2-(3-methyl-1-phenyl-1H-pyrazol-4-ylamino)-4-(methylamino) pyrimidine-5-carbonitrile]
145 nM | COc1nc(Nc2cnn(C)c2C)ncc1C#N [Example 375, 2-(1,5-dimethyl-1H-pyrazol-4-ylamino)-4-methoxy-pyrimidine-5-carbonitrile]
36 nM | CCn1cc(Nc2ncc(C#N)c(NC)n2)c(C)n1 [Example 353, 2-(1-ethyl-3-methyl-1H-pyrazol-4-ylamino)-4-(methylamino) pyrimidine-5-carbonitrile]
45 nM | CNc1nc(Nc2cn(CC3CC3)nc2C)ncc1C#N [Example 380, 2-(1-(cyclopropylmethyl)-3-methyl-1H-ylamino)-4-(methylamino) pyrimidine-5-carbonitrile]

Same assay, conditions: Table 10; LRRK2 Ki (micromolar); read-out: LRRK2 Ki (KI)

Ki | Structure (SMILES)
10 nM | CCc1nn(C(C)(C)C#N)cc1Nc1ncc(C(F)(F)F)c(NC)n1 [Example 410, 2-(3-ethyl-4-(4-(methylamino)-5-(trifluoromethyl)pyrimidin-2-ylamino)-1H-pyrazol-1-yl)-2-methylpropanenitrile]
9.2 nM | CCNc1nc(Nc2cn(C(C)(C)C(=O)NC)nc2C)ncc1C(F)(F)F [Example 453, 2-[4-(4-Ethylamino-5-trifluoromethyl-pyrimidin-2-ylamino)-3-methyl-pyrazol-1-yl]-N-methyl-isobutyramide]
24 nM | CCNC(=O)C1(n2cc(Nc3ncc(C(F)(F)F)c(NC)n3)c(C)n2)CCC1 [Example 428]
1.6 nM | CNc1nc(Nc2cnn([C@H](C)C#N)c2C)ncc1C(F)(F)F [Example 439, (R)-2-[5-Methyl-4-(4-methylamino-5-trifluoromethyl-pyrimidin-2-ylamino)-pyrazol-1-yl]-propionitrile]
15.6 nM | CCNC(=O)C1(n2ncc(Nc3ncc(C(F)(F)F)c(NC)n3)c2C)CCC1 [Example 442, 1-[5-Methyl-4-(4-methylamino-5-trifluoromethyl-pyrimidin-2-ylamino)-pyrazol-1-yl]-cyclobutane-carboxylic acid ethylamide]

Same assay, conditions: read-out: LRRK2 Ki (KI), Table 7

Structure (SMILES) | Ki
COc1nc(Nc2cn(C(C)(C)C#N)nc2C)ncc1Cl [Example 73, 2-(4-(5-chloro-4-methoxy-pyrimidin-2-ylamino)-3-methyl-1H-pyrazol-1-yl)-2-methylpropane-nitrile] | 14 nM
COc1nc(Nc2cn(C3COC3)nc2C)ncc1Cl [Example 18, 5-Chloro-4-methoxy-N-(3-methyl-1-(oxetan-3-yl)-1H-pyrazol-4-yl)pyrimidin-2-amine] | 22 nM
COc1nc(Nc2cn(-c3ccccc3)nc2C)ncc1Cl [Example 76, (5-Chloro-4-methoxy-pyrimidin-2-yl)-(3-methyl-1-phenyl-1H-pyrazol-4-yl)-amine] | 2.3 nM
COc1nc(Nc2cnn(C(C)(C)C#N)c2C)ncc1Cl [Example 72, 2-(4-(5-chloro-4-methoxy-pyrimidin-2-ylamino)-5-methyl-1H-pyrazol-1-yl)-2-methylpropane-nitrile] | 16 nM

Further lines, results first:

Ki | Structure (SMILES)
4.6 nM | CCNc1nc(Nc2ccn(C)n2)ncc1C(F)(F)F [Example 61, N^4-ethyl-N^2-(1-methyl-1H-pyrazol-3-yl)-5-(trifluoromethyl) pyrimidine-2,4-diamine]
15 nM | CNc1nc(Nc2cnn(CCN3CCOCC3)c2)ncc1C(F)(F)F [Example 3, N^4-methyl-N^2-(1-(2-morpholinoethyl)-1H-pyrazol-4-yl)-5-(trifluoromethyl) pyrimidine-2,4-diamine]

Same assay, conditions: read-out: LRRK2 Ki (KI), Table 8

Structure (SMILES) | Ki
CNc1nc(Nc2cn(CC(F)(F)F)nc2C)ncc1Br [Example 95, 5-bromo-N4-methyl-N2-(3-methyl-1-(2,2,2-trifluoroethyl)-1H-pyrazol-4-yl)pyrimidine-2,4-diamine] | 1.2 nM
CNc1nc(Nc2cn(C3CN(CC(F)(F)F)C3)nc2C)ncc1C(F)(F)F [Example 202, N4-methyl-N2-(3-methyl-1-(1-(2,2,2-trifluoroethyl)azetidin-3-yl)-1H-pyrazol-4-yl)-5-(trifluoromethyl) pyrimidine-2,4-diamine] | 34 nM
CNc1nc(Nc2cn(CC3(C)COC3)nc2C)ncc1Cl [Example 114, 5-chloro-N4-methyl-N2-(3-methyl-1-((3-methyloxetan-3-yl)methyl)-1H-pyrazol-4-yl)pyrimidine-2,4-diamine] | 19 nM
CCCn1ncc(Nc2ncc(Br)c(NC)n2)c1C [Example 259, 5-Bromo-N4-methyl-N2-(5-methyl-1-propyl-1H-pyrazol-4-yl)-pyrimidine-2,4-diamine] | 5.7 nM
Cc1nn(S(C)(=O)=O)cc1Nc1ncc(C(F)(F)F)c(NC2CC2)n1 [Example 300, N4-Cyclopropyl-N2-(1-methanesulfonyl-3-methyl-1H-pyrazol-4-yl)-5-trifluoromethyl-pyrimidine-2,4-diamine] | 0.4 nM
CNc1nc(Nc2cn(C3C[C@@H]4CC[C@@H](C3)O4)nc2C)ncc1C(F)(F)F (stereo partly drawn) [Example 126, N2-(1-((1S,5S)-8-oxabicyclo[3.2.1]octan-3-yl)-3-methyl-1H-pyrazol-4-yl)-N4-methyl-5-(trifluoromethyl) pyrimidine-2,4-diamine] | 113 nM
CNc1nc(Nc2cnn(-c3ccc(S(=O)(=O)C4CC4)cc3)c2C)ncc1C(F)(F)F [Example 167, N2-(1-(4-(cyclopropyl-sulfonyl)phenyl)-5-methyl-1H-pyrazol-4-yl)-N4-methyl-5-(trifluoromethyl) pyrimidine-2,4-diamine] | 18.8 nM

Second part, the molecule after the results:

Ki | Structure (SMILES)
2.8 nM | CNc1nc(Nc2cnn(Cc3cccnn3)c2C)ncc1C(F)(F)F [Example 309, N4-Methyl-N2-(5-methyl-1-pyridazin-3-ylmethyl-1H-pyrazol-4-yl)-5-trifluoromethyl-pyrimidine-2,4-diamine]
4.5 nM | CNc1nc(Nc2cn(CC3CC3)nc2C)ncc1C(F)(F)F [Example 166, N2-(1-(cyclopropyl-methyl)-3-methyl-1H-pyrazol-4-yl)-N4-methyl-5-(trifluoromethyl) pyrimidine-2,4-diamine]
6.7 nM | CNc1nc(Nc2cn(C)nc2C2CC2)ncc1C(F)(F)F [Example 177, N2-(3-cyclopropyl-1-methyl-1H-pyrazol-4-yl)-N4-methyl-5-(trifluoromethyl) pyrimidine-2,4-diamine]
3.1 nM | CCNc1nc(Nc2cnn(CC(C)(C)O)c2Cl)ncc1C(F)(F)F [Example 234, 1-(5-chloro-4-(4-(ethylamino)-5-(trifluoromethyl)pyrimidin-2-ylamino)-1H-pyrazol-1-yl)-2-methylpropan-2-ol]
0.3 nM | CCNc1nc(Nc2cnn(C3CCOCC3)c2C)ncc1C(F)(F)F [Example 158, N4-ethyl-N2-(5-methyl-1-(tetrahydro-2H-pyran-4-yl)-1H-pyrazol-4-yl)-5-(trifluoromethyl) pyrimidine-2,4-diamine]
0.3 nM | CNc1nc(Nc2cnn(-c3ccnc(C)c3)c2C)ncc1C(F)(F)F [Example 142, N4-methyl-N2-(5-methyl-1-(2-methylpyridin-4-yl)-1H-pyrazol-4-yl)-5-(trifluoromethyl) pyrimidine-2,4-diamine]
1.4 nM | CNc1nc(Nc2cn(C(C)(C)c3ccnn3C)nc2C)ncc1C(F)(F)F [Example 344, N4-methyl-N2-(3-methyl-1-(2-(1-methyl-1H-pyrazol-5-yl)propan-2-yl)-1H-pyrazol-4-yl)-5-(trifluoromethyl) pyrimidine-2,4-diamine]
1.5 nM | CCNc1nc(Nc2cn(CC(C)(C)O)nc2C2CC2)ncc1C(F)(F)F [Example 236, 1-(3-cyclopropyl-4-(4-(ethylamino)-5-(trifluoromethyl)pyrimidin-2-ylamino)-1H-pyrazol-1-yl)-2-methylpropan-2-ol]
0.3 nM | CNc1nc(Nc2cnn(-c3ccc(Cl)cc3)c2C)ncc1C(F)(F)F [Example 123, N2-(1-(4-chlorophenyl)-5-methyl-1H-pyrazol-4-yl)-N4-methyl-5-(trifluoromethyl) pyrimidine-2,4-diamine]
15.6 nM | CCNc1nc(Nc2cn([C@H]3CCCN(C)C3)nc2C)ncc1C(F)(F)F [Example 312, N4-Ethyl-N2-[3-methyl-1-((S)-1-methyl-piperidin-3-yl)-1H-pyrazol-4-yl]-5-trifluoromethyl-pyrimidine-2,4-diamine]
0.8 nM | CCNc1nc(Nc2cn(C(C)(C)c3nnc(C)[nH]3)nc2C)ncc1C(F)(F)F [Example 331, N4-Ethyl-N2-{3-methyl-1-[1-methyl-1-(5-methyl-4H-[1,2,4]triazol-3-yl)-ethyl]-1H-pyrazol-4-yl}-5-trifluoromethyl-pyrimidine-2,4-diamine]
11 nM | CCNc1nc(Nc2ccnn2C)ncc1C(F)(F)F [Example 176, N4-ethyl-N2-(1-methyl-1H-pyrazol-5-yl)-5-(trifluoromethyl) pyrimidine-2,4-diamine]
0.9 nM | CCNc1nc(Nc2cn(CC3(C)COC3)nc2C)ncc1C(F)(F)F [Example 144, N4-ethyl-N2-(3-methyl-1-((3-methyloxetan-3-yl)methyl)-1H-pyrazol-4-yl)-5-(trifluoromethyl) pyrimidine-2,4-diamine]
2.2 nM | CNc1nc(Nc2cnn(C3CCC(=O)NC3)c2C)ncc1C(F)(F)F (centres unmarked) [Example 154, 5-(5-methyl-4-(4-(methylamino)-5-(trifluoromethyl)pyrimidin-2-ylamino)-1H-pyrazol-1-yl)piperidin-2-one]
69 nM | CNc1nc(Nc2cn(C)nc2C(C)C)ncc1C(F)(F)F [Example 227, N2-(3-isopropyl-1-methyl-1H-pyrazol-4-yl)-N4-methyl-5-(trifluoromethyl) pyrimidine-2,4-diamine]
